Experimental data reported in patent US9981909B2 (Janssen Pharmaceutica NV, priority 2008, dated 2018).
Counter-ions that a name gives are not always drawn.

Target: rat 5-HT7 receptor (Rattus norvegicus (Rat), UniProt P32305)
Assay: r5-HT7 binding assay, competitive radioligand binding with [3H]5-CT
Procedure: Receptor binding was performed using membrane fractions prepared from the HEK-293 cell line recombinantly expressing rat 5-HT7 receptors (NCBI accession NM_022938). Compound affinity for the rat 5-HT7 receptor subtype was evaluated by competitive radioligand binding assays using 5-carboxamido[^3H]tryptamine ([^3H]5-CT) (Amersham Biosciences, cat. 90000403) detection. HitHunter™ cAMP assays are in-vitro based competitive immunoassays. The assay was performed on the HEK-293 cell line stably transfected with r5-HT7 receptor. Cells were pre-incubated with test compounds for 10 minutes. For antagonist testing, the cells were then challenged with 100 nM 5-CT for 20 minutes. Cells were then lysed and cAMP measured according to manufacturers protocol (Amersham, cat. NET791250UC) or [^3H]mesulergine (Amersham, cat. TRK1041). The assay was performed on membranes prepared from HEK-293 cells stably transfected with h5-HT6. Following centrifugation, membranes were resuspended and incubated for 60 min at room temperature with 1.7 nM [^3H]LSD in the presence of increasing concentration of test compounds. Nonspecific binding was defined in the presence of 10 μM clozapine (Tocris, cat. TRK1068). Homogenized HEK-293 membranes expressing the human SERT were incubated in 50 mM Tris-HCl (pH 7.5), 120 mM NaCl, 5 mM KCl with [^3H]-citalopram (3 nM) with or without test compounds. Nonspecific binding was determined in the presence of 10 μM fluoxetine. Radioactivity readouts and Ki values were performed as previously described for r5-HT7. […] Compounds were assayed in their free form or as salts, as indicated in the Examples section above.

[1] = rat 5-HT7 receptor, HEK-293 membranes

rat 5-HT7 receptor, sequence (P32305 1-435): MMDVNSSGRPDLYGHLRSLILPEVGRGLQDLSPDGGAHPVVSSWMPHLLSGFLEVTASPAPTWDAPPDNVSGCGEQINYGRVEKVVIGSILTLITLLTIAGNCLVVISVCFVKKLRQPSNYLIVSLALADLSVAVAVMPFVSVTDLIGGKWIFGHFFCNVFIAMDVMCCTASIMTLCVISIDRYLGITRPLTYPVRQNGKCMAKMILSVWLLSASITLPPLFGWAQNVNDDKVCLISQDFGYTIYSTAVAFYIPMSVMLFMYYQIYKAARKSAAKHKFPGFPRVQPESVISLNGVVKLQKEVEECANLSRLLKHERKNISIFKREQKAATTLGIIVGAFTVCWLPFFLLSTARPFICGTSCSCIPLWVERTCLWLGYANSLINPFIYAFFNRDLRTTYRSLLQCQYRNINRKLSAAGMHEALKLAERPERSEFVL

CN1CC[C@@H](Oc2cc(Cl)ccc2OCc2ccccc2Cl)C1 [Example 61, (R)-3-[5-Chloro-2-(2-chloro-benzyloxy)-phenoxy]-1-methyl-pyrrolidine]
Ki [1]: 36 nM

CC(C)(C)c1ccc2c(c1)CCC2Oc1ccc(Br)cc1OC1CNC1 (stereo not drawn) [Example 162, 3-[5-Bromo-2-(5-tert-butyl-indan-1-yloxy)-phenoxy]-azetidine]
Ki [1]: 5000 nM

CC(Oc1ccc(Cl)cc1OC1CNC1)c1cc(F)ccc1F (racemic) [Example 130, (±)-3-[5-Chloro-2-[1-(2,5-difluoro-phenyl)-ethoxy]-phenoxy]-azetidine trifluoroacetate]
Ki [1]: 371 nM

Cc1ccccc1C(=O)c1ccc(Br)cc1OC1CNC1 [Example 285, [2-(Azetidin-3-yloxy)-4-bromo-phenyl]-o-tolyl-methanone]
Ki (rat 5-HT7, HEK-293 membranes): 3000 nM

Cc1cc(COc2ccc(Cl)cc2OC2CNC2)no1 [Example 30, 3-[2-(Azetidin-3-yloxy)-4-chloro-phenoxymethyl]-5-methyl-isoxazole]
Ki [1]: 105 nM

N#Cc1ccc(COc2ccc(Cl)cc2OC2CNC2)cc1 [Example 44, 4-[2-(Azetidin-3-yloxy)-4-chloro-phenoxymethyl]-benzonitrile]
Ki [1]: 87 nM

O=C(c1ccccc1)c1ccc(Br)cc1OC1CNC1 [Example 280]
Ki (rat 5-HT7, HEK-293 membranes): 98 nM

Clc1cccc(COc2cc(Br)ccc2OC2CN(C3CCC3)C2)c1 [Example 23, 3-[4-Bromo-2-(3-chloro-benzyloxy)-phenoxy]-1-cyclobutyl-azetidine]
Ki [1]: 121 nM

Clc1ccc(OCc2nccs2)c(OC2CNC2)c1 [Example 88, 2-[2-(Azetidin-3-yloxy)-4-chloro-phenoxymethyl]-thiazole]
Ki [1]: 681 nM

COc1ccc(C(=O)c2ccc(Br)cc2OC2CNC2)cc1 [Example 291, [2-(Azetidin-3-yloxy)-4-bromo-phenyl]-(4-methoxy-phenyl)-methanone]
Ki (rat 5-HT7, HEK-293 membranes): 34 nM

CC(Oc1ccc(Cl)cc1OC1CNC1)c1cccc(SC(F)(F)F)c1 (racemic) [Example 120, (±)-3-[5-Chloro-2-[1-(3-trifluoromethylsulfanyl-phenyl)-ethoxy]-phenoxy]-azetidine]
Ki [1]: 40 nM

CC(C)N1CC(Oc2cc(Br)ccc2OCc2cccc(F)c2)C1 [Example 20, 3-[5-Bromo-2-(3-fluoro-benzyloxy)-phenoxy]-1-isopropyl-azetidine]
Ki [1]: 8 nM

CN1CC(COc2cc(Br)ccc2OCc2cccc(Cl)c2)C1 [Example 234, 3-[5-Bromo-2-(3-chloro-benzyloxy)-phenoxymethyl]-1-methyl-azetidine]
Ki (rat 5-HT7, HEK-293 membranes): 130 nM

CC(Oc1ccc(Cl)cc1OC1CNC1)c1nccs1 (stereo not drawn) [Example 133, 2-[1-[2-(Azetidin-3-yloxy)-4-chloro-phenoxy]-ethyl]-thiazole]
Ki [1]: 591 nM

CN(C)C(=O)c1ccc(OCc2cccc(Cl)c2)c(OC2CNC2)c1 [Example 211, 3-(Azetidin-3-yloxy)-4-(3-chloro-benzyloxy)-N,N-dimethyl-benzamide]
Ki [1]: 9000 nM

Clc1ccc(OCc2ccccc2)c(OC2CCNCC2)c1 [Example 62, 4-(2-Benzyloxy-5-chloro-phenoxy)-piperidine]
Ki [1]: 34 nM

CON=C1c2ccccc2CC1Oc1ccc(Cl)cc1OC1CNC1 (stereo not drawn) [Example 180, 2-[2-(Azetidin-3-yloxy)-4-chloro-phenoxy]-indan-1-one O-methyl-oxime]
Ki [1]: 813 nM

Fc1ccc(Oc2ccc(Br)cc2OC2CNC2)cc1 [Example 249, 3-[5-Bromo-2-(4-fluoro-phenoxy)-phenoxy]-azetidine]
Ki (rat 5-HT7, HEK-293 membranes): 20 nM

O=C(c1ccc(Cl)cc1)c1ccc(Cl)cc1OC1CNC1 [Example 297, [2-(Azetidin-3-yloxy)-4-chloro-phenyl]-(4-chloro-phenyl)-methanone]
Ki (rat 5-HT7, HEK-293 membranes): 150 nM

CC(Oc1ccc(Cl)cc1OC1CN(C(C)C)C1)c1cccc(C(F)(F)F)c1 (racemic) [Example 106, (±)-3-[5-Chloro-2-[1-(3-trifluoromethyl-phenyl)-ethoxy]-phenoxy]-1-isopropyl-azetidine]
Ki [1]: 75 nM

Clc1ccc(OC2CNC2)c(OC2CNC2)c1 [Example 226]
Ki (rat 5-HT7, HEK-293 membranes): 840 nM

CC(Oc1ccc(Cl)cc1OC1CCNCC1)c1ccccc1F (racemic) [Example 138, (±)-4-[5-Chloro-2-[1-(2-fluoro-phenyl)-ethoxy]-phenoxy]-piperidine]
Ki [1]: 42 nM

CN1CC(Oc2cc(Br)ccc2C(=O)c2cccc(Cl)c2)C1 [Example 283, [4-Bromo-2-(1-methyl-azetidin-3-yloxy)-phenyl]-(3-chloro-phenyl)-methanone]
Ki (rat 5-HT7, HEK-293 membranes): 50 nM

FC(F)(F)Sc1ccc(COc2ccc(Cl)cc2OC2CNC2)cc1 [Example 46, 3-[5-Chloro-2-(4-trifluoromethylsulfanyl-benzyloxy)-phenoxy]-azetidine]
Ki [1]: 102 nM

CN1CCC(Oc2cc(Br)ccc2OCc2ccccc2)C1 (racemic) [Example 98, (±)-3-(2-Benzyloxy-5-bromo-phenoxy)-1-methyl-pyrrolidine]
Ki [1]: 23 nM

Clc1ccc(Oc2ccccc2)c(OC2CCNCC2)c1 [Example 265, 4-(5-Chloro-2-phenoxy-phenoxy)-piperidine]
Ki (rat 5-HT7, HEK-293 membranes): 130 nM

FCC(Oc1ccc(Cl)cc1OC1CCNCC1)c1ccccc1 (racemic) [Example 144, (±)-4-[5-Chloro-2-(2-fluoro-1-phenyl-ethoxy)-phenoxy]-piperidine]
Ki [1]: 304 nM

Clc1ccc(OCC2COc3ccccc3C2)c(OC2CNC2)c1 (stereo not drawn) [Example 167, 3-[5-Chloro-2-(chroman-3-ylmethoxy)-phenoxy]-azetidine]
Ki [1]: 167 nM

CCOC(=O)c1cc(COc2ccc(Cl)cc2OC2CNC2)oc1C(F)(F)F [Example 76, 5-[2-(Azetidin-3-yloxy)-4-chloro-phenoxymethyl]-2-trifluoromethyl-furan-3-carboxylic acid ethyl ester]
Ki [1]: 5000 nM

Cc1noc(COc2ccc(Cl)cc2OC2CNC2)n1 [Example 239, 5-[2-(Azetidin-3-yloxy)-4-chloro-phenoxymethyl]-3-methyl-[1,2,4]oxadiazole]
Ki (rat 5-HT7, HEK-293 membranes): 233 nM

C[C@H](Oc1ccc(Cl)cc1OC1CN(Cc2ccccc2)C1)c1cccc(C(F)(F)F)c1 [Example 104, (S)-1-Benzyl-3-[5-chloro-2-[1-(3-trifluoromethyl-phenyl)-ethoxy]-phenoxy]-azetidine]
Ki [1]: 166 nM

O=C(c1ccc(Cl)c(F)c1)c1ccc(Br)cc1OC1CNC1 [Example 292, [2-(Azetidin-3-yloxy)-4-bromo-phenyl]-(4-chloro-3-fluoro-phenyl)-methanone]
Ki (rat 5-HT7, HEK-293 membranes): 74 nM

Brc1ccc(Oc2cccc3ccccc23)c(OC2CNC2)c1 [Example 255, 3-[5-Bromo-2-(naphthalen-1-yloxy)-phenoxy]-azetidine]
Ki (rat 5-HT7, HEK-293 membranes): 196 nM

CC(C)N1CC(Oc2cc(Cl)ccc2C(=O)c2ccc3c(c2)OCO3)C1 [Example 296, Benzo[1,3]dioxol-5-yl-[4-chloro-2-(1-isopropyl-azetidin-3-yloxy)-phenyl]-methanone]
Ki (rat 5-HT7, HEK-293 membranes): 181 nM

CN1CCC(Oc2cc(Br)ccc2OCc2cccc(OS(C)(=O)=O)c2)C1 (racemic) [Example 99, (±)-Methanesulfonic acid 3-[4-bromo-2-(1-methyl-pyrrolidin-3-yloxy)-phenoxymethyl]-phenyl ester]
Ki [1]: 5 nM

Clc1ccc(Oc2nc3ccccc3s2)c(OC2CNC2)c1 [Example 261, 2-[2-(Azetidin-3-yloxy)-4-chloro-phenoxy]-benzothiazole]
Ki (rat 5-HT7, HEK-293 membranes): 1600 nM

Fc1cccc(COc2ccc(Br)cc2OC2CN(C3CCC3)C2)c1 [Example 21, 3-[5-Bromo-2-(3-fluoro-benzyloxy)-phenoxy]-1-cyclobutyl-azetidine]
Ki [1]: 20 nM

CC(C)N1CC(Oc2cc(F)ccc2OCc2cccc(Cl)c2)C1 [Example 204, 3-[2-(3-Chloro-benzyloxy)-5-fluoro-phenoxy]-1-isopropyl-azetidine]
Ki [1]: 27 nM

CC(C)N1CC(Oc2cc(Br)ccc2C(=O)c2ccc3ccccc3c2)C1 [Example 288, [4-Bromo-2-(1-isopropyl-azetidin-3-yloxy)-phenyl]-naphthalen-2-yl-methanone]
Ki (rat 5-HT7, HEK-293 membranes): 59 nM

CN1CCC(Oc2cc(Br)ccc2OCc2cccc(F)c2)C1 (racemic) [Example 97, (±)-3-[5-Bromo-2-(3-fluoro-benzyloxy)-phenoxy]-1-methyl-pyrrolidine]
Ki [1]: 34 nM

Clc1ccc(OCc2ccccc2Cl)c(O[C@@H]2CCNC2)c1 [Example 60, (R)-3-[5-Chloro-2-(2-chloro-benzyloxy)-phenoxy]-pyrrolidine]
Ki [1]: 250 nM

FC(F)(F)Oc1ccc(COc2ccc(Cl)cc2OC2CNC2)cc1Cl [Example 41, 3-[5-Chloro-2-(3-chloro-4-trifluoromethoxy-benzyloxy)-phenoxy]-azetidine]
Ki [1]: 130 nM

Clc1cccc(COc2ccc(-c3ccsc3)cc2OC2CNC2)c1 [Example 210, 3-[2-(3-Chloro-benzyloxy)-5-thiophen-3-yl-phenoxy]-azetidine]
Ki [1]: 506 nM

CC(Oc1ccc(Cl)cc1OC1CNC1)c1ccccc1Cl (racemic) [Example 116, (±)-3-[5-Chloro-2-[1-(2-chloro-phenyl)-ethoxy]-phenoxy]-azetidine]
Ki [1]: 68 nM

Clc1cccc(C2(COc3ccc(Cl)cc3OC3CNC3)CCC2)c1 [Example 189, 3-[5-Chloro-2-[1-(3-chloro-phenyl)-cyclobutylmethoxy]-phenoxy]-azetidine]
Ki [1]: 138 nM
